Data published in patent US11814341B2, “Non-peptidic cell-penetrating motifs” (Ohio State Innovation Foundation, priority 2018, dated 2023).

What was measured:
HeLa cells [1] = experiment: MTT viability assay, anti-cancer activity of Hsp90 inhibitors; format: cell-based; details: 24 h
HeLa cells [2] = experiment: JC-10 mitochondrial membrane potential assay; details: 20 μM, 24 h; above the normal value
Procedure: Procedure: Mitochondria membrane potential assay. Experiments were carried out by using JC-10 Mitochondrial Membrane Potential Assay kit (Abcam, ab112134) according to the manufacturer's manual. Briefly, HeLa cells (2×10^4 cells/well) were seeded in a 96-well plate (black wall clear bottom) in 90 μL of DMEM containing 10% FBS and 1% penicillin/streptomycin and allowed to attach overnight. […] Without washing, cells were treated with 50 μL of a JC-10 dye solution (30 μM in buffer A) for 60 min. Fifty μL of buffer B was added and the fluorescence intensities at Ex/Em=490/520 nm and 540/590 nm were recorded on a microplate reader (Infinite M1000Pro).
CPM1-3 was next tested for a potential effect on mitochondrial membrane potential, a key indicator of cell health or injury. HeLa cells untreated or treated with CPM were labeled with JC-10, a dye molecule which emits green fluorescence inside the cytosol but red fluorescence inside the mitochondria. The ratio of green/red fluorescence (F520/F590) provides an indicator of the mitochondrial membrane potential.

| Molecule | maximum reduction in HeLa cell viability (HeLa cells [1]; 0-10 μM) [%] | inhibitor concentration at which maximal inhibition was reached (HeLa cells [1]) [µM] | increase in the F520/F590 ratio (HeLa cells [2]) |
| --- | --- | --- | --- |
| COC1=C2C[C@@H](C)C[C@H](OC)[C@H](O)[C@@H](C)/C=C(\C)[C@H](OC(N)=O)[C@@H](OC)/C=C\C=C(/C)C(=O)NC(=CC1=O)C2=O [GA, geldanamycin] | ~40 | 0.3 |  |
| p-trifluoromethoxy carbonyl cyanide phenyl hydrazone [FCCP] |  |  | up to 7 fold |
